According to patent publication US9981923B2, “1,2,3 Triazole antifungal agents and preparation thereof” (COUNCIL OF SCIENTIFIC & INDUSTRIAL RESEARCH, priority 2014, dated 2018):
Converted amounts (≈) assume the structure as drawn. Read-outs that look alike come from different tables or passages of the source.

Assays:
[1] = system: Aspergillus niger ATCC 10578; assay: Antifungal susceptibility by microbroth dilution (CLSI); format: cell-based
Experimental: (§1) The synthesized compounds were evaluated for antifungal susceptibility by microbroth dilution method according to the recommendations of the Clinical Laboratory Standards Institute (CLSI 2008). Briefly, appropriate amount of compounds were dissolved in dimethyl sulfoxide to get 100× final strength. The stock was then diluted 1:50 in RPMI/YPG medium and 200 μl from this was added to the first row of a 96-well microtitre plate. The compounds were serially diluted two fold in successive wells to get a range of 1-128 μg/ml. Fungal yeast cells (˜2×10^3 cfu/mL), freshly grown in YPG broth in logarithmic phase, were suspended in the medium and inoculated (100 μl) in the wells of the plate. For filamentous fungi, 2×10^4 spores/mL were added. The microtitre plate was incubated for 48 h, and the absorbance was measured at 600 nm by using microtitre plate reader to assess cell growth.

[2] = system: Aspergillus fumigatus MCC 1046; assay: as above; format: cell-based
Experimental: as §1

[3] = system: Cryptococcus neoformans ATCC 34664; assay: as above; format: cell-based; conditions: for MIC: Table 1, 48 h, >90% inhibition of growth
Experimental: as §1

[4] = system: Candida albicans ATCC 10231; assay: as above; format: cell-based; conditions: for MIC: Table 1, 48 h, >90% inhibition of growth
Experimental: as §1

[5] = system: Candida albicans ATCC 24433; assay: as above; format: cell-based; conditions: for MIC: Table 1, 48 h, >90% inhibition of growth, range 1-128 μg/ml
Experimental: as §1

[6] = system: Candida glabrata NCYC 388; assay: as above; format: cell-based
Experimental: as §1

ergosterol = assay: Effect of the compounds on sterol profile (spectrophotometric ergosterol quantitation); format: cell-based, C. albicans ATCC 24433; conditions: for ergosterol depletion (sterol profile, height of absorbance peaks 220-300 nm): C. albicans ATCC 24433, 24 h, 0.5 MIC and MIC of the lead compounds; for inhibition of lanosterol 14 α-demethylase enzyme (concluded from ergosterol depletion): C. albicans ATCC 24433 sterol profile
Experimental: Inhibition of lanosterol 14 α-demethylase by azoles results in depletion of ergosterol. The depletion can be quantified by spectrophotometry. Briefly, Overnight grown C. albicans ATCC 24433 (1×10^6 cfu/ml) cells were inoculated in a series of flasks containing 50 ml of Yeast extract Peptone Glucose (YPG) broth containing […] of fluconazole per ml as well as 0.5 MIC and MIC of the lead compounds. The cultures were incubated for 24 h with shaking at 30° C. The stationary-phase cells were harvested by centrifugation […] and washed once with sterile distilled water. The net wet weight of the cell pellet was determined. Three milliliters of 25% alcoholic potassium hydroxide solution (25 g of […] and 35 ml of sterile distilled water, brought to 100 ml with 100% ethanol), was added to 125 mg of pellet and vortex mixed for 1 min. Cell suspensions were transferred to sterile borosilicate glass screw-cap tubes and were incubated in an 85° C. water bath for 1 h. Following incubation, tubes were allowed to cool to room temperature. Sterols were then extracted by addition of a mixture of 1 ml of sterile distilled water and 3 ml of n-heptane followed by vigorous vortex mixing for 3 min. The heptane layer was transferred to a clean borosilicate glass screw-cap tube. The sterol extract was scanned spectrophotometrically between 220 and 300 nm with a Spectrophotometer.

pathogenic fungi = assay: Antifungal activity, overall assessment of the microbroth dilution results; format: cell-based; conditions: based on the MIC results
Experimental: as §1

[7] = system: reactive oxygen species (ROS); assay: ROS production using dichlorofluorescin diacetate dye; format: cell-based; conditions: C. albicans ATCC 24433, dichlorofluorescin diacetate dye
Experimental: Apart from lanosterol 14 a-demethylase inhibition, few azoles like miconazole are known to exert their antifungal action by reactive oxygen species (ROS) generation. Therefore ROS production in C. albicans ATCC 24433 was evaluated for these compounds by using dichlorofluorescin diacetate dye. […] ROS can damage a wide range of molecules, including nucleic acids, proteins and lipids, can cause apoptosis, necrotic death and with this wide range of targets it is difficult to determine which events lead to loss of viability of cells following damage.

C. tropicalis ATCC 750 = assay: Antifungal susceptibility by microbroth dilution (CLSI); format: cell-based; conditions: Table 2
Experimental: as §1

[8] = Cryptococcus neoformans, ATCC34664, read-out: MIC
[9] = Candida albicans, ATCC10231, read-out: MIC
[10] = Candida albicans, ATCC24433, read-out: MIC
[11] = Aspergillus niger, ATCC10578, Table 1, 48 h, >90% inhibition of growth, read-out: MIC
[12] = Aspergillus fumigatus, MCC1046, Table 1, 48 h, >90% inhibition of growth, read-out: MIC
[13] = Nakaseomyces glabratus, NCYC388, Table 1, 48 h, >90% inhibition of growth, read-out: MIC
[14] = Table 1, 48 h, >90% inhibition of growth

Row | melting point [°C] | MIC [1, 11] [µg/mL] | MIC [2, 12] [µg/mL] | MIC [6, 13] [µg/mL] | Structure (SMILES) | MIC [3, 8] [µg/mL] | MIC [5, 10] [µg/mL] | further results
1 | 192 to 194 |  |  |  | Oc1cc(Cl)ccc1-n1cc(CC(O)c2cc(C(F)(F)F)cc(C(F)(F)F)c2)nn1 (stereo not shown) [Compound 1jb, 2-(4-(2-(3,5-Bis(trifluoromethyl)phenyl)-2-hydroxyethyl)-1H-1,2,3-triazol-1-yl)-5-chlorophenol] |  |  | 
2 |  |  |  |  | OC(Cn1cncn1)(Cn1cncn1)c1ccc(F)cc1F [Fluconazole, reference compound] | 32 (≈ 104 µM) | 2 (≈ 6.53 µM) | MIC ([1]; Aspergillus niger, ATCC10578, 48 h): > 128 µg/mL; MIC ([2]; Aspergillus fumigatus, MCC1046, 48 h): > 128 µg/mL; MIC [4, 9]: 8 µg/mL (≈ 26.1 µM); MIC ([6]; Nakaseomyces glabratus, NCYC388, 48 h): > 128 µg/mL; ergosterol depletion (sterol profile, height of absorbance peaks 220-300 nm) (ergosterol): dose-dependent decrease in the height of the absorbance peaks
3 | 148 to 150 | 64 (≈ 203 µM) | 128 (≈ 405 µM) | 128 (≈ 405 µM) | Oc1ccc(Cl)cc1-n1cc(CC(O)c2ccccc2)nn1 (stereo not shown) [Compound 1ea, 4-Chloro-2-(4-(2-hydroxy-2-phenylethyl)-1H-1,2,3-triazol-1-yl)phenol] | > 128 | 64 (≈ 203 µM) | 
4 | 171 to 172 |  |  |  | Oc1cc(Cl)ccc1-n1cc(CC(O)c2ccccc2)nn1 (stereo not shown) [Compound 1eb, 5-Chloro-2-(4-(2-hydroxy-2-phenylethyl)-1H-1,2,3-triazol-1-yl)phenol] |  |  | 
5 | 232 to 234 |  |  |  | CC(O)(c1ccccc1)c1cn(-c2ccc(Cl)cc2O)nn1 (stereo not shown) [Compound 2cb, 5-Chloro-2-(4-(1-hydroxy-1-phenylethyl)-1H-1,2,3-triazol-1-yl)phenol] |  |  | ergosterol depletion (sterol profile, height of absorbance peaks 220-300 nm) (ergosterol): no ergosterol depletion was observed
6 |  |  |  |  | CCC(O)(c1ccccc1)c1cn(-c2cc(Cl)ccc2O)nn1 (stereo not shown) [Compound 1da] |  |  | antifungal activity, overall assessment (pathogenic fungi): promising molecules; MIC [1, 14]: >128 µg/mL; MIC [2, 14]: >128 µg/mL; MIC [3]: 16 µg/mL (≈ 48.5 µM); MIC [4]: 16 µg/mL (≈ 48.5 µM); MIC [5]: 16 µg/mL (≈ 48.5 µM); MIC [6, 14]: 8 µg/mL (≈ 24.3 µM); ergosterol depletion (sterol profile, height of absorbance peaks 220-300 nm) (ergosterol): no ergosterol depletion was observed; inhibition of lanosterol 14 α-demethylase enzyme (concluded from ergosterol depletion) (ergosterol): potent inhibitors; ROS generation [7]: dose dependent increase in ROS generation
7 | 191 to 193 | 64 (≈ 194 µM) | 64 (≈ 194 µM) | 32 (≈ 97 µM) | Cc1cc(C)cc(C(O)c2cn(-c3cc(Cl)ccc3O)nn2)c1 (stereo not shown) [Compound 1aa, 4-Chloro-2-(4-((3,5-dimethylphenyl)(hydroxy)methyl)-1H-1,2,3-triazol-1-yl)phenol] | 32 (≈ 97 µM) | 64 (≈ 194 µM) | 
8 |  |  |  |  | CC(O)(c1ccccc1)c1cn(-c2cc(Cl)ccc2O)nn1 (stereo not shown) [Compound 2ca] |  |  | inhibition of lanosterol 14 α-demethylase enzyme (concluded from ergosterol depletion) (ergosterol): potent inhibitors
9 | 181 to 183 |  |  |  | Oc1ccc(Cl)cc1-n1cc(CC(O)c2cc(C(F)(F)F)cc(C(F)(F)F)c2)nn1 (stereo not shown) [Compound 1ja, 2-(-4-(2-(3,5-Bis(trifluoromethyl)phenyl)-2-hydroxyethyl)-1,2,3-triazol-1-yl)-4-chlorophenol] |  |  | 
10 | 165 to 167 |  |  |  | CCCCC(O)(Cc1cn(-c2cc(Cl)ccc2O)nn1)c1ccccc1 (stereo not shown) [Compound 2ha, 4-chloro-2-(4-(2-hydroxy-2-phenylhexyl)-1H-1,2,3-triazol-1-yl)phenol] |  |  | 
11 | 210 to 212 |  |  |  | Oc1cc(Cl)ccc1-n1cc(CC(O)(c2ccccc2)c2ccccc2)nn1 [Compound 2ib, 5-Chloro-2-(-4-(2-hydroxy-2,2-diphenylethyl)-1H-1,2,3-triazol-1-yl)phenol] |  |  | 
12 | 211 to 213 | > 128 | > 128 | 128 (≈ 292 µM) | Oc1ccc(Cl)cc1-n1cc(C(O)c2cc(C(F)(F)F)cc(C(F)(F)F)c2)nn1 (stereo not shown) [Compound 1ba, 2-(4-((3,5-Bis(trifluoromethyl)phenyl)(hydroxy)methyl)-1H-1,2,3-triazol-1-yl)-4-chlorophenol] | 16 (≈ 36.6 µM) | 128 (≈ 292 µM) | 
13 | 156 to 158 |  |  |  | CC(O)(Cc1cn(-c2ccc(Cl)cc2O)nn1)c1cc(C(F)(F)F)cc(C(F)(F)F)c1 (stereo not shown) [Compound 2sb, 2-(4-(2-(3,5-Bis(trifluoromethyl)phenyl)-2-hydroxypropyl)-1H-1,2,3-triazol-1-yl)-5-chlorophenol] |  |  | 
14 | 194 to 196 | > 128 | 128 (≈ 327 µM) | 128 (≈ 327 µM) | Oc1ccc(Cl)cc1-n1cc(CC(O)(c2ccccc2)c2ccccc2)nn1 [Compound 2ia, 4-Chloro-2-(4-(2-hydroxy-2,2-diphenylethyl)-1H-1,2,3-triazol-1-yl)phenol] | > 128 | 128 (≈ 327 µM) | 
15 |  |  |  |  | CCC(O)(c1ccccc1)c1cn(-c2ccc(Cl)cc2O)nn1 (stereo not shown) [Compound 1db] |  |  | antifungal activity, overall assessment (pathogenic fungi): promising molecules; MIC [1, 14]: >128 µg/mL; MIC [2, 14]: >128 µg/mL; MIC [3]: 16 µg/mL (≈ 48.5 µM); MIC [4]: 32 µg/mL (≈ 97 µM); MIC [5]: 16 µg/mL (≈ 48.5 µM); MIC [6, 14]: 8 µg/mL (≈ 24.3 µM)
16 |  |  |  |  | CN(C)c1ccc(C(O)Cc2cn(-c3cc(Cl)ccc3O)nn2)cc1 (stereo not shown) [Compound 3ga, 4-Chloro-2-(4-(2-(4-(dimethylamino)phenyl)-2-hydroxyethyl)-1H-1,2,3-triazol-1-yl)phenol] |  |  | MIC values ([1]; Table 2): >256 µg/mL; MIC values ([2]; Table 2): >256 µg/mL; MIC values ([3]; Table 2): 64 µg/mL (≈ 178 µM); MIC values ([4]; Table 2): 16 µg/mL (≈ 44.6 µM); MIC values (C. tropicalis ATCC 750): >256 µg/mL; MIC values ([5]; Table 2): 64 µg/mL (≈ 178 µM); MIC values ([6]; Table 2): 16 µg/mL (≈ 44.6 µM)
17 | 189 to 190 |  |  |  | CC(O)(Cc1cn(-c2ccc(Cl)cc2O)nn1)c1ccccc1 (stereo not shown) [Compound 2fb, 5-Chloro-2-(4-(2-hydroxy-2-phenylpropyl)-1H-1,2,3-triazol-1-yl)phenol] |  |  | 

Row | Structure (SMILES) | melting point [°C] | MIC [1, 11] [µg/mL] | MIC [2, 12] [µg/mL] | MIC [6, 13] [µg/mL] | MIC [3, 8] [µg/mL] | MIC [5, 10] [µg/mL] | further results
18 | CC(O)(Cc1cn(-c2cc(Cl)ccc2O)nn1)c1ccccc1 (stereo not shown) [Compound 2fa, 4-Chloro-2-(4-(2-hydroxy-2-phenylpropyl)-1H-1,2,3-triazol-1-yl)phenol] |  | > 128 | 8 (≈ 24.3 µM) | 8 (≈ 24.3 µM) | 16 (≈ 48.5 µM) | 16 (≈ 48.5 µM) | antifungal activity, overall assessment (pathogenic fungi): promising molecules; MIC [4, 9]: 16 µg/mL (≈ 48.5 µM); ROS generation [7]: dose dependent increase in ROS generation
19 | CCC(O)(Cc1cn(-c2cc(Cl)ccc2O)nn1)c1ccccc1 (stereo not shown) [Compound 2ga, 4-Chloro-2-(4-(2-hydroxy-2-phenylbutyl)-1H-1,2,3-triazol-1-yl)phenol] | 153 to 155 | > 128 | 32 (≈ 93.1 µM) | 8 (≈ 23.3 µM) | 16 (≈ 46.5 µM) | 16 (≈ 46.5 µM) | antifungal activity, overall assessment (pathogenic fungi): promising molecules; MIC [4, 9]: 16 µg/mL (≈ 46.5 µM); inhibition of lanosterol 14 α-demethylase enzyme (concluded from ergosterol depletion) (ergosterol): potent inhibitors
20 | CCC(O)(Cc1cn(-c2ccc(Cl)cc2O)nn1)c1ccccc1 (stereo not shown) [Compound 2gb, 5-Chloro-2-(4-(2-hydroxy-2-phenylbutyl)-1H-1,2,3-triazol-1-yl)phenol] | 129 to 131 | > 128 | 8 (≈ 23.3 µM) | 8 (≈ 23.3 µM) | 8 (≈ 23.3 µM) | 16 (≈ 46.5 µM) | antifungal activity, overall assessment (pathogenic fungi): promising molecules; MIC [4, 9]: 16 µg/mL (≈ 46.5 µM); ergosterol depletion (sterol profile, height of absorbance peaks 220-300 nm) (ergosterol): most effective
